From US12091387B2, “Quinoline cGAS antagonist compounds” (IMMUNESENSOR THERAPEUTICS, INC., priority 2022, dated 2024)

Key:
[1] = biological target: T1, recombinant human cGAS (aa147-522) (Homo sapiens, UniProt Q8N884); test: In vitro inhibition assay of cGAS activity (KinaseGlo, ATP consumption); format: biochemical; conditions: Herring testis DNA, 6.6 μM ATP, 0.1 mM GTP, 37° C. 20 minutes
T1 construct: recombinant human cGAS (aa147-522); His6-SUMO (N, cleaved yes); made in house; host or cells: E. coli BL21/pLys
Procedure: Expression and Purification of Recombinant cGAS Protein: cDNA encoding full-length or amino acids 147-520 of human cGAS was inserted into a modified pET28a vector containing an in-frame His6-SUMO tag. The E. coli strain BL21/pLys harboring the plasmid was induced with 0.5 mM IPTG at 18° C. overnight. His6-SUMO tag was removed by a SUMO protease digestion following purification of the His6-SUMO-cGAS as described previously (Sun et al, 2013, Science 339, 786).
In vitro inhibition assay of cGAS activity: A 60 μL mixture containing 20 mM Tris-Cl, pH 7.5, 5 mM MgCl2, 0.2 mg/mL BSA, 0.01 mg/mL Herring testis DNA, 6.6 μM ATP, 0.1 mM GTP, 1.5 μg/mL of recombinant human cGAS (aa147-522) and serial dilutions of a test compound in DMSO is added to a 96-well plate and incubated at 37° C. for 20 minutes. At the end of reaction, 40 μL of KinaseGlo Max (Promega) is added and chemiluminescence was measured with a luminometer. Inhibitory effect of a compound is evaluated by plotting percentage of ATP consumption against logarithm of compound concentrations. IC50 value is calculated using GraphPad Prism 8 (GraphPad Software, Inc.).
The letter codes for cGAS IC50 include: A (<2 μM); B (2-30 μM); C (>30 μM).

[2] = tested on: cGAS activity in reporter THP1 cell line; test: Cellular assay to measure cGAS activity (ISRE-Gaussia luciferase reporter THP1 cells, ISD transfection); format: cell-based; conditions: Homo sapiens, THP-1, 2 μg/mL ISD transfection, 16 hours, luciferase luminescence
Procedure: Cellular assay to measure cGAS activity: Reporter THP1 cell line harboring a gene encoding Gaussia Luciferase under the control of 5 tandem repeats of interferon-stimulated response elements (ISRE) fused to an ISG54 minimal promoter was used to test inhibition of cGAS activity by synthetic compounds in human cells. These cells were plated on 96-well plates at 0.3×10^6/well and incubated with serial dilutions of compounds or DMSO for 5 min, followed by transfection of 2 μg/mL of ISD (Interferon Stimulatory DNA, a 45 bp DNA oligo) or mock transfected using lipofectamine 2000 (Life Technology) method, according to manufacturer's instructions. 16 hours later, 15 μL of the media from each well was transferred to a new plate, 50 μL of solution containing 50 mM Hepes-NaOH, pH 6.5, 50 mM NaCl, 10 mM EDTA, 1 μM of coeleanterazine is added to each well and luminescence is measured immediately. Fold increase in luminescence compared to mock transfection was plotted against concentrations of each compound, and IC50 is calculated using Graphpad. To evaluate the specificity of a compound, the same procedure is performed except that cells are transfected with 2 μg/mL […] or infected with Sendai Virus (SeV) at 50 Unit/mL, which are known to activate the RIG-I-MAVS pathway. A specific inhibitory compound should inhibit interferon induction by DNA but have minimal effect on poly(I:C) or Sendai virus induced interferon reporter gene expression.
The letter codes for cGAS IC50 include: A (<2 μM); B (2-10 μM); C (>10 μM).

T1 sequence (Q8N884 147-522): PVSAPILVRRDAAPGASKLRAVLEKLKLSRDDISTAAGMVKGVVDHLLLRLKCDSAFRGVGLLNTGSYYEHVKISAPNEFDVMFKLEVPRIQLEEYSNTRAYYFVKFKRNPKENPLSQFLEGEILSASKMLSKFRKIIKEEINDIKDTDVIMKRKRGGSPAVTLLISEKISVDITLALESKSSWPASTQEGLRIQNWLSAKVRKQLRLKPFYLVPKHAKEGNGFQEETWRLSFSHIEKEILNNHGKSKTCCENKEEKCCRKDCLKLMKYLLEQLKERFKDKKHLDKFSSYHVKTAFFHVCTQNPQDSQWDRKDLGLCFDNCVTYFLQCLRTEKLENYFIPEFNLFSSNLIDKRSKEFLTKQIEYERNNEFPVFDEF

| SMILES | IC50 [1] | IC50 [2] |
| --- | --- | --- |
| O=C(O)CCOC[C@@H]1CCCN1c1cc(-c2cnoc2)c2ccc(Cl)c(Cl)c2n1 [I-902] | < 2000 nM | 2000 to 10000 nM |
| O=C(O)CCOC[C@@H]1CC2(CC2)CN1c1cc(-n2cncn2)c2cc(Cl)c(Br)cc2n1 [I-896] | < 2000 nM | < 2000 nM |
| O=C(O)CCOC[C@@H]1CCCN1c1cc(-n2cncn2)c2c(Cl)c(Cl)ccc2n1 [I-932] | < 2000 nM | < 2000 nM |
| O=C(O)CCOC[C@@H]1C[C@H](C(F)(F)F)CN1c1cc(-n2cncn2)c2cc(Cl)c(Br)cc2n1 [I-929] | < 2000 nM | < 2000 nM |
| COC(=O)[C@@H]1[C@@H](O)CCN1c1cc(-n2cncn2)c2cc(Cl)c(Br)cc2n1 [I-936] | < 2000 nM | < 2000 nM |
| CCN(CCOCCC(=O)O)c1cc(-n2cncn2)c2cc(Br)c(Cl)c(Cl)c2n1 [I-938] | < 2000 nM | < 2000 nM |
| O=C(O)CCOC[C@@H]1CCCN1c1cc(-c2cnsc2)c2ccc(Cl)c(Cl)c2n1 [I-906] | < 2000 nM | < 2000 nM |
| O=C(O)CCOC[C@@H]1CCCN1c1cc(-c2cncs2)c2ccc(Cl)c(Cl)c2n1 [I-907] | < 2000 nM | < 2000 nM |
| O=C(O)[C@@H]1[C@@H](O)CCN1c1cc(-n2cncn2)c2cc(Cl)c(Br)cc2n1 [I-934] | < 2000 nM | > 10000 nM |
| O=C(O)CCOC[C@@H]1CCCN1c1cc(-n2cncn2)c2ccc(Cl)c(Cl)c2n1 [I-892] | < 2000 nM | < 2000 nM |
| O=C(O)CCOC[C@@H]1CCCN1c1cc(-n2cncn2)c2cc(Cl)c(Br)cc2n1 [I-893] | < 2000 nM | < 2000 nM |
| O=C(O)CCOC[C@@H]1CC2(CC2)CN1c1cc(-n2cncn2)c2ccc(Cl)c(Cl)c2n1 [I-898] | < 2000 nM | < 2000 nM |
| O=C(O)CCOC[C@@H]1CCCN1c1cc(-n2cncn2)c2cc(Br)c(Cl)c(Cl)c2n1 [I-895] | < 2000 nM | < 2000 nM |
| O=C(O)CCOC[C@H]1CCCN1c1cc(-n2cncn2)c2cc(Br)c(Cl)c(Cl)c2n1 [I-925] | < 2000 nM | < 2000 nM |
| O=C(O)CCOC[C@@H]1CCCN1c1cc(-c2ccc(F)cc2)c2ccc(Cl)c(Cl)c2n1 [I-913] | > 30000 nM | > 10000 nM |
| O=C(O)CCOC[C@H]1CC2(CC2)CN1c1cc(-n2cncn2)c2cc(Br)c(Cl)c(Cl)c2n1 [I-926] | < 2000 nM | < 2000 nM |
| O=C(O)CCOC[C@@H]1CCCN1c1cc(-c2cccnc2)c2ccc(Cl)c(Cl)c2n1 [I-915] | > 30000 nM | > 10000 nM |
| O=C(O)CCOC[C@H]1CCCN1c1cc(-n2cncn2)c2cc(Cl)c(Br)cc2n1 [I-924] | 2000 to 30000 nM | > 10000 nM |
| O=C(O)CCOC[C@@H]1CCCN1c1cc(C2=CCNC2)c2ccc(Cl)c(Cl)c2n1 [I-922] | > 30000 nM | > 10000 nM |
| O=C(O)CCOC[C@@H]1CCCN1c1cc(-n2cncn2)c2cc(Cl)c(Cl)cc2n1 [I-931] | < 2000 nM | < 2000 nM |
| O=C(O)CCOC[C@@H]1CC2(CC2)CN1c1cc(-n2cncn2)c2cc(Br)c(Cl)c(Cl)c2n1 [I-897] | < 2000 nM | < 2000 nM |
| Cc1c(Br)ccc2c(-n3cncn3)cc(N3CCC[C@H]3COCCC(=O)O)nc12 [I-894] | < 2000 nM | < 2000 nM |
| O=C(O)CCOC[C@@H]1CCCN1c1cc(-c2ncn[nH]2)c2ccc(Br)cc2n1 [I-901, (S)-3-((1-(7-bromo-4-(4H-1,2,4-triazol-3-yl)quinolin-2-yl)pyrrolidin-2-yl)methoxy)propanoic acid] | 2000 to 30000 nM | > 10000 nM |
| O=C(O)CCOC[C@@H]1CCN(c2cc(-n3cncn3)c3cc(Br)c(Cl)c(Cl)c3n2)C1 [I-937] | < 2000 nM | < 2000 nM |

| SMILES | IC50 [1] | IC50 [2] |
| --- | --- | --- |
| O=C(O)CCOC[C@@H]1CCCN1c1cc(-c2ccncc2)c2ccc(Cl)c(Cl)c2n1 [I-916] | > 30000 nM | > 10000 nM |
| O=C(O)CCOC[C@@H]1CCCN1c1cc(-c2cscn2)c2ccc(Cl)c(Cl)c2n1 [I-908] | > 30000 nM | > 10000 nM |
| O=C(O)CCOC[C@@H]1CCCN1c1cc(-c2cnn[nH]2)c2ccc(Cl)c(Cl)c2n1 [I-899, (S)-3-((1-(7,8-dichloro-4-(1H-1,2,3-triazol-4-yl)quinolin-2-yl)pyrrolidin-2-yl)methoxy)propanoic acid] | < 2000 nM | < 2000 nM |
| O=C(O)CCOC[C@@H]1CCCN1c1cc(-c2cnco2)c2ccc(Br)cc2n1 [I-903, (S)-3-((1-(7-bromo-4-(oxazol-5-yl)quinolin-2-yl)pyrrolidin-2-yl)methoxy)propanoic acid] | < 2000 nM | 2000 to 10000 nM |
| O=C(O)CCOC[C@@H]1CCCN1c1cc(-c2cccc(F)c2)c2ccc(Cl)c(Cl)c2n1 [I-914] | 2000 to 30000 nM | > 10000 nM |
| CN1CCN(c2cc(N3CCC[C@H]3COCCC(=O)O)nc3c(Cl)c(Cl)ccc23)CC1 [I-921] | > 30000 nM | > 10000 nM |
| O=C(O)CCOC[C@@H]1C[C@@H]2C[C@@H]2N1c1cc(-n2cncn2)c2cc(Cl)c(Br)cc2n1 [I-927] | < 2000 nM | < 2000 nM |
| O=C(O)CCOC[C@@H]1CCCN1c1cc(N2CCNCC2)c2ccc(Cl)c(Cl)c2n1 [I-920] | > 30000 nM | > 10000 nM |
| COc1ccc(-c2cc(N3CCC[C@H]3COCCC(=O)O)nc3c(Cl)c(Cl)ccc23)cc1 [I-911] | > 30000 nM | > 10000 nM |
| O=C(O)CCOC[C@@H]1CCCN1c1cc(-c2ccnnc2)c2ccc(Cl)c(Cl)c2n1 [I-918] | > 30000 nM | > 10000 nM |
| O=C(O)CCOC[C@@H]1CCCN1c1cc(C2=CNCC2)c2ccc(Cl)c(Cl)c2n1 [I-923] | 2000 to 30000 nM | > 10000 nM |
| O=C(O)CCOC[C@@H]1CCCN1c1cc(-c2ccsc2)c2ccc(Cl)c(Cl)c2n1 [I-905] | > 30000 nM | > 10000 nM |
| O=C(O)CCOC[C@@H]1CCCN1c1cc(-n2ccnn2)c2ccc(Cl)c(Cl)c2n1 [I-900, (S)-3-((1-(7,8-dichloro-4-(1H-1,2,3-triazol-1-yl)quinolin-2-yl)pyrrolidin-2-yl)methoxy)propanoic acid] | < 2000 nM | < 2000 nM |
| O=C(O)CCOC[C@@H]1CCCN1c1cc(-c2cccc(O)c2)c2ccc(Cl)c(Cl)c2n1 [I-910] | > 30000 nM | > 10000 nM |
| O=C(O)CCOC[C@@H]1CCCN1c1cc(-c2cocn2)c2ccc(Cl)c(Cl)c2n1 [I-904] | > 30000 nM | > 10000 nM |
| O=C(O)CCOC[C@@H]1CCCN1c1cc(N2CCOCC2)c2ccc(Cl)c(Cl)c2n1 [I-919] | > 30000 nM | > 10000 nM |
| C[C@H]1C[C@@H](COCCC(=O)O)N(c2cc(-n3cncn3)c3cc(Cl)c(Br)cc3n2)C1 [I-928] | < 2000 nM | < 2000 nM |
| O=C(O)CCOC[C@@H]1CCCN1c1cc(-c2cncnc2)c2ccc(Cl)c(Cl)c2n1 [I-917] | < 2000 nM | > 10000 nM |
| COc1cccc(-c2cc(N3CCC[C@H]3COCCC(=O)O)nc3c(Cl)c(Cl)ccc23)c1 [I-912] | > 30000 nM | > 10000 nM |
| COC(=O)[C@@H]1[C@@H](O)CCN1c1cc(-n2cncn2)c2cc(Br)c(Cl)c(Cl)c2n1 [I-933] | < 2000 nM | < 2000 nM |
| O=C(O)CCOC[C@@H]1CCCN1c1cc(-c2cccc(CO)c2)c2ccc(Cl)c(Cl)c2n1 [I-909] | > 30000 nM | > 10000 nM |
| O=C(O)CCOC[C@@H]1CCN(c2cc(-n3cncn3)c3cc(Cl)c(Br)cc3n2)C1 [I-935] | < 2000 nM | < 2000 nM |
| O=C(O)CCOC[C@@H]1C[C@@H]2C[C@@H]2N1c1cc(-n2cncn2)c2cc(Br)c(Cl)c(Cl)c2n1 [I-930] | < 2000 nM | < 2000 nM |
